Measured values: PMC10819888, “Benzimidazole-Based Derivatives as Apoptotic Antiproliferative Agents: Design, Synthesis, Docking, and Mechanistic Studies” (Molecules, 2024)

System: caspase-3
Assay: Caspase-3 activation assay
Type: cell-based, human
Details: PC-3 cell line
From the text: Caspase-3 is a key caspase that cleaves numerous cell proteins, resulting in apoptosis. […] They elevated the protein caspase-3 in the PC-3 cancer cell line by around seven to nine times compared to untreated control cells.
For more details, see Supplementary Materials. […]
4.2.3. Caspase-3 activation assay
Allow all reagents to reach room temperature before use. Gently mix all liquid reagents prior to use. Determine the number of 8-well strips needed for the assay. Insert these in the frame(s) for current use. Add 100 μl of the Standard Diluent Buffer to the zero standard wells. Well(s) reserved for chromogen blank should be left empty. Add 100 μl of standards and controls or diluted samples to the appropriate microtiter wells. The sample dilution chosen should be optimized for each experimental system. Tap gently on side of plate to mix. Cover wells with plate cover and incubate for 2 hours at room temperature. Thoroughly aspirate or decant solution from wells and discard the liquid, Wash wells 4 times. Pipette 100 μl of Caspase-3 (Active) Detection Antibod y solution into each well except the chromogen blank(s). Tap gently on the side of the plate to mix.
Cover plate with plate cover and incubate for 1 hour at room temperature. Thoroughly aspirate or decant solution from wells and discard the liquid, Wash well s 4 times. Add 100 μl Anti-Rabbit IgG HRP Working Solution to each well except the chromogen blank(s). Prepare the working dilution as described in Preparing IgG HRP. Cover wells with the plate cover and incubate for 30 minutes at room temperature. Thoroughly aspirate or decant solution from wells and discard the liquid. Wash wells 4 times. Add 100 μl of Stabilized Chromogen to each well. The liquid in the wells will begin to turn blue. Incubate for 30 minutes at room temperature and in the dark. The incuba tion time for chromogen substrate is often determined by the microtiter plate reader used. Many plate readers have the capacity to record a maximum optical density (O.D.) of 2.0. The O.D. values should be monitored, and the substrate reaction stopped befor e the O.D. of […]
the positive wells exceeds the limits of the instrument. The O.D. values at 450 nm can only be read after the Stop Solution has been added to each well. If using a reader that […]
100 μl of Stop Solution to each well. Tap side of plate gently to mix. The solution in the wells should change from blue to yellow. Read the absorbance of each well at 450 nm having blanked the plate reader against a chromogen blank composed of 100 μl each of Stabilized Chromogen and Stop Solution. Read the plate within 2 hours after adding the Stop Solution. Use a curve fitting software to generate the standard curve. A four-parameter algorithm provides the best standard curve fit. Read the concentrations for unknown samples and controls from the standard curve. Multiply value(s) obtained for sample(s) by the appropriate dilution factor to correct for the dilution in step 3. Samples producing signals greater than that of the highest standard should be diluted in Standard Diluent Buffer and reanalyzed. […]
A standard curve is […]
prepared from 7human Caspase-8 standard dilutions and human Caspase-8 concentration determined.

SMILES	Caspase-3 Conc [pg/mL]	caspase-3 protein level [pg/mL]	Caspase-3 Fold Change (vs control)
O=C(NN=Cc1ccc([N+](=O)[O-])cc1)c1ccc2[nH]c(-c3ccc(Cl)cc3)nc2c1 [Compound 4c, N′-(4-Nitrobenzylidene)-2-(4-chlorophenyl)-1H-benzimidazole-5-carbohydrazide]	365 ± 12	365 ± 12	
O=C(NN=Cc1ccc(Cl)cc1)c1ccc2[nH]c(-c3ccc(Cl)cc3)nc2c1 [Compound 4e, N′-(4-Chlorobenzylidene)-2-(4-chlorophenyl)-1H-benzimidazole-5-carbohydrazide]	470 ± 15	470 ± 15	9
